14 molecules from ChEMBL document CHEMBL5500393, “Discovery and Optimization of Novel SaFabI Inhibitors as Specific Therapeutic Agents for MRSA Infection” (J Med Chem, 2024) can be followed below.

For assay [1], the target named is T1, Enoyl-[acyl-carrier-protein] reductase [NADPH] FabI (Staphylococcus aureus) (UniProt Q6GI75).
T1 sequence (whole entry): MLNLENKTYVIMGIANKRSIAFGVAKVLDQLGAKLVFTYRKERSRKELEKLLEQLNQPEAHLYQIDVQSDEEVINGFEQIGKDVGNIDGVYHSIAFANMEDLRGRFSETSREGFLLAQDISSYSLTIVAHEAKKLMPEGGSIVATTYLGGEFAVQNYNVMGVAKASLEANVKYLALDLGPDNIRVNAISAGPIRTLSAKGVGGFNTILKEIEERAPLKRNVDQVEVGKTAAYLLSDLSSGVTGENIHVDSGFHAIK
Put plainly: Inhibition of N-terminal his 6 tagged Staphylococcus aureus Fabi (1 to […] residues) expressed in Escherichia coli BL21 at 10 uM incubated for 30 mins in presence of NADPH by fluorescence based microplate reader analysis relative to control.

In assay [2] the target is T1, Enoyl-[acyl-carrier-protein] reductase [NADPH] FabI (Staphylococcus aureus). In words: Inhibition of N-terminal his 6 tagged Staphylococcus aureus Fabi (1 to […] residues) expressed in Escherichia coli BL21 at 1 uM incubated for 30 mins in presence of NADPH by fluorescence based microplate reader analysis relative to control.
Assay [3] has as its system Staphylococcus aureus. Put plainly: Antimicrobial activity against […] Staphylococcus aureus ATCC33591 measured after 24 hrs by CLSI protocol based microdilution method. The format is functional.
The subject of assay [4] is Staphylococcus aureus. Put plainly: Antimicrobial activity against […] Staphylococcus aureus ATCC43300 measured after 24 hrs by CLSI protocol based microdilution method. Format: functional.
The subject of assay [5] is Staphylococcus aureus. Put plainly: Antimicrobial activity against […] Staphylococcus aureus USA300 measured after 24 hrs by CLSI protocol based microdilution method. Format: functional.
Assay [6] has as its system Staphylococcus aureus. Put plainly: Antimicrobial activity against […] Staphylococcus aureus NRS271 measured after 24 hrs by CLSI protocol based microdilution method. The format is functional.
In assay [7] the test system is Staphylococcus aureus. Put plainly: Antimicrobial activity against methicillin-susceptible Staphylococcus aureus ATCC29213 measured after 24 hrs by CLSI protocol based microdilution method. Format: functional.
In assay [8] the test system is Staphylococcus aureus. Put plainly: Antimicrobial activity against methicillin-susceptible Staphylococcus aureus ATCC25923 measured after 24 hrs by CLSI protocol based microdilution method. Format: functional.
The subject of assay [9] is Enterococcus faecium. Put plainly: Antimicrobial activity against Enterococcus faecium ATCC19434 measured after 24 hrs by CLSI protocol based microdilution method. The format is functional.
In assay [10] the test system is Enterococcus faecalis. In words: Antimicrobial activity against Enterococcus faecalis ATCC29212 measured after 24 hrs by CLSI protocol based microdilution method. The format is functional.
The subject of assay [11] is Pseudomonas aeruginosa. In words: Antimicrobial activity against Pseudomonas aeruginosa PAO1 measured after 24 hrs by CLSI protocol based microdilution method. The format is functional.
The subject of assay [12] is Escherichia coli. Put plainly: Antimicrobial activity against Escherichia coli ATCC25922 measured after 24 hrs by CLSI protocol based microdilution method. Format: functional.
Assay [13] relates to Acinetobacter baumannii. In words: Antimicrobial activity against Acinetobacter baumannii ATCC19606 measured after 24 hrs by CLSI protocol based microdilution method. Format: functional.
Assay [14] deals with Candida albicans. Put plainly: Antimicrobial activity against Candida albicans SC5314 measured after 48 hrs by CLSI protocol based microdilution method. The format is functional.

Bounds are passed on as bounds.

Consider `CC(=O)c1ccc(N2CC(c3nc4ccccc4n3C)CC2=O)cc1Cl` (stereo unspecified), for which the inhibition in assay [1] stood at 3.8%; in assay [2] it was 5.5%. Further, the MIC in [3], in assay [4], in assay [5], in [6], in [7] and in assay [8] was more than 32 µg/mL throughout. The minimum inhibitory concentration (MIC) in assay [9], in [10], in assay [11], in [12], in assay [13] and in [14] was more than 32 µg/mL each time.

For the molecule `Cc1c(Br)cccc1N1CC(c2nc3ccccc3[nH]2)CC1=O` (stereo unspecified), the inhibition was determined as 36.6% in assay [1] and 11.6% in assay [2]. The MIC in [3], in assay [4], in [5], in assay [6], in [7] and in assay [8] was more than 32 µg/mL in each case. Also, the minimum inhibitory concentration (MIC) in assay [9], in [10], in assay [11], in assay [12], in assay [13] and in assay [14] was more than 32 µg/mL each time.

For the molecule `Cn1c(CCC(=O)Nc2ccccc2)nc2ccccc21`, the inhibition in assay [1] was 7.8%; in assay [2], 7.7%. Further, the MIC in assay [3], in [4], in assay [5], in assay [6], in assay [7] and in [8] was more than 32 µg/mL each time. The minimal inhibitory concentration (MIC) in [9], in [10], in assay [11], in assay [12], in assay [13] and in assay [14] was more than 32 µg/mL in each case.

As for `Cc1cccc(N2CCC(c3nc4ccccc4n3C)CC2)c1C`, the inhibition in assay [1] was 2%; in assay [2], 2.8%. The MIC in assay [3], in assay [4], in [5], in [6], in assay [7] and in [8] was more than 32 µg/mL in each case. The MIC in assay [9], in [10], in [11], in assay [12], in assay [13] and in assay [14] was more than 32 µg/mL throughout.

With `Cc1cccc(C(=O)NCCNC(=O)c2nc3ccccc3n2C)c1C`, the inhibition in assay [1] came out at 3.7%; in assay [2], 1.7%. Further, the MIC in [3], in [4], in [5], in assay [6], in assay [7] and in assay [8] was more than 32 µg/mL throughout. Moreover, the MIC in [9], in [10], in [11], in [12], in assay [13] and in assay [14] was more than 32 µg/mL in each case.

On to `Cn1c(C(=O)NCc2ccccc2)nc2ccccc21`, for which the inhibition was found to be 4.7% in assay [1] and 6.2% in assay [2]. In addition, the MIC in assay [3], in [4], in [5], in assay [6], in assay [7] and in assay [8] was more than 32 µg/mL each time. Besides, the MIC in assay [9], in assay [10], in assay [11], in assay [12], in [13] and in assay [14] was more than 32 µg/mL in each case.

As for `Cn1c(C2CC(=O)N(c3cccc(Br)c3OCC(F)(F)F)C2)nc2ccccc21` (stereo unspecified), the inhibition in [1] stood at 18.8%; in assay [2], 2.1%. The MIC in assay [3], in assay [4], in assay [5], in assay [6], in assay [7] and in assay [8] was more than 32 µg/mL each time. In addition, the MIC in [9], in assay [10], in assay [11], in assay [12], in assay [13] and in [14] was more than 32 µg/mL throughout.

Consider `Cn1c(CCC(=O)NCc2ccccc2)nc2ccccc21`, for which the inhibition was 6.1% in [1] and 7.9% in assay [2]. Also, the MIC in assay [3], in [4], in assay [5], in assay [6], in assay [7] and in [8] was more than 32 µg/mL in each case. The MIC in assay [9], in [10], in [11], in assay [12], in assay [13] and in assay [14] was more than 32 µg/mL in each case.

On to `Cn1c(C2CC(=O)N(CCc3ccccc3)C2)nc2ccccc21` (stereo unspecified), for which the inhibition in assay [1] is 3.9%; in assay [2], 5.8%. In addition, the MIC in assay [3], in [4], in assay [5], in assay [6], in assay [7] and in [8] was more than 32 µg/mL each time. Further, the MIC in [9], in assay [10], in [11], in assay [12], in assay [13] and in assay [14] was more than 32 µg/mL each time.

`Cn1ccc(N2CC(c3nc4ccccc4n3C)CC2=O)n1` (stereo unspecified): the inhibition in assay [1] was determined as 4.3%; in assay [2], 5.1%. Moreover, the MIC in assay [3], in assay [4], in assay [5], in assay [6], in assay [7] and in assay [8] was more than 32 µg/mL in each case. Moreover, the MIC in assay [9], in [10], in assay [11], in assay [12], in assay [13] and in assay [14] was more than 32 µg/mL in each case.

On to `Cn1c(C2CC(=O)N(c3ccc(Cl)cc3)C2)nc2ccccc21` (stereo unspecified), for which the figures for the inhibition in assay [1] and in assay [2] were 35.7% and 2.2%, respectively. Moreover, the MIC in assay [3], in [4], in assay [5], in assay [6], in [7] and in assay [8] was more than 32 µg/mL in each case. The MIC in assay [9], in [10], in [11], in [12], in assay [13] and in assay [14] was more than 32 µg/mL in each case.

In the case of `Cc1cccc(NC(=O)CCNC(=O)c2nc3ccccc3n2C)c1C`, the inhibition in assay [1] was 6.6%; in [2] it was 4.8%. Further, the MIC in [3], in assay [4], in [5], in assay [6], in assay [7] and in assay [8] was more than 32 µg/mL in each case. Moreover, the MIC in assay [9], in assay [10], in assay [11], in [12], in [13] and in [14] was more than 32 µg/mL throughout.

As for `Cn1c(C2CC(=O)N(c3ccc(Br)c(Br)c3)C2)nc2ccccc21` (stereo unspecified), the figures for the inhibition in [1] and in assay [2] were 45.4% and 4.8%, respectively. For the same molecule, the MIC in assay [3], in assay [4], in assay [5], in [6], in assay [7] and in assay [8] was more than 32 µg/mL each time. Moreover, the MIC in assay [9], in assay [10], in assay [11], in assay [12], in [13] and in assay [14] was more than 32 µg/mL each time.

Take `Cn1c(CCC(=O)NCCNC(=O)Cc2ccccc2)nc2ccccc21`: the inhibition in assay [1] turned out to be 21.4%; in [2], 3.6%. The MIC in assay [3], in [4], in assay [5], in assay [6], in assay [7] and in assay [8] was more than 32 µg/mL each time. Besides, the MIC in assay [9], in assay [10], in assay [11], in assay [12], in assay [13] and in [14] was more than 32 µg/mL in each case.
